# Experimental data: patent publication US20090075937A1, “LHRH ANTAGONISTS FOR THE TREATMENT OF LOWER URINARY TRACT SYMPTOMS” (AETERNA ZENTARIS GmbH, priority 2007, published 2009)
# Legend:
# study subjects [1] = test: Peroral treatment of study subjects with tetrahydrocarbazole compounds: nocturia frequency, urgency to urinate, frequency of emptying (Examples 4-9); assay type: in vivo, human; settings: 50 to 150 mg perorally daily as a single dose, schemes of 6 weeks to 6 months
# study subjects [2] = test: Peroral treatment of study subjects with tetrahydrocarbazole compounds: chemical (hormonal) castration (Examples 4-9); assay type: in vivo, human; settings: 50 to 150 mg perorally daily as a single dose, schemes of 6 weeks to 6 months
# Method: In the course of the present invention, the terms “hormone” and “hormonal” within for instance the terms “hormone castration”, “chemical (hormonal) castration” or “hormone withdrawal symptoms” refer to follicle stimulating hormone (FSH), luteinizing hormone (LH) and/or testosterone. Preferably, chemical (hormonal) castration is a testosterone castration and refers to a testosterone blood level of equal or below 1.2 ng/mL, preferably 0.5 ng/mL.
# Study subjects are treated with compound (76) with the following doses according to the following administration schemes: • in a 3 month trial, 75 mg or 150 mg compound (76) administered perorally daily as a single dose on day 2-7 of the menstrual cycle • in a 3 months trial, 75 mg, 100 mg or 150 mg compound (76) administered perorally daily as a single dose on day 2-7 of the menstrual cycle followed by a 3 months treatment-free period • in a 6 months trial, 75 mg or 150 mg compound (76) administered perorally daily as a single dose • 50 mg or 150 mg per compound (76) administered daily as a single dose over 42 days (6 weeks)
# Study subjects are treated with compound (68) with the following doses according to the following administration schemes: • in a 3 month trial, 75 mg or 150 mg compound (68) administered perorally daily as a single dose on day 2-7 of the menstrual cycle • in a 3 months trial, 75 mg, 100 mg or 150 mg compound (68) administered perorally daily as a single dose on day 2-7 of the menstrual cycle followed by a 3 months treatment-free period • in a 6 months trial, 75 mg or 150 mg compound (68) administered perorally daily as a single dose • 50 mg or 150 mg per compound (68) administered daily as a single dose over 42 days (6 weeks)
# Study subjects are treated with compound 36 with the following doses according to the following administration schemes: • in a 3 month trial, 75 mg or 150 mg compound 36 administered perorally daily as a single dose on day 2-7 of the menstrual cycle • in a 3 months trial, 75 mg, 100 mg or 150 mg compound 36 administered perorally daily as a single dose on day 2-7 of the menstrual cycle followed by a 3 months treatment-free period • in a 6 months trial, 75 mg or 150 mg compound 36 administered perorally daily as a single dose • 50 mg or 150 mg per compound 36 administered daily as a single dose over 42 days (6 weeks)
# Study subjects are treated with compound 37 with the following doses according to the following administration schemes: • in a 3 month trial, 75 mg or 150 mg compound 37 administered perorally daily as a single dose on day 2-7 of the menstrual cycle • in a 3 months trial, 75 mg, 100 mg or 150 mg compound 37 administered perorally daily as a single dose on day 2-7 of the menstrual cycle followed by a 3 months treatment-free period • in a 6 months trial, 75 mg or 150 mg compound 37 administered perorally daily as a single dose • 50 mg or 150 mg per compound 37 administered daily as a single dose over 42 days (6 weeks)
# Study subjects are treated with compound 52 with the following doses according to the following administration schemes: • in a 3 month trial, 75 mg or 150 mg compound 52 administered perorally daily as a single dose on day 2-7 of the menstrual cycle • in a 3 months trial, 75 mg, 100 mg or 150 mg compound 52 administered perorally daily as a single dose on day 2-7 of the menstrual cycle followed by a 3 months treatment-free period • in a 6 months trial, 75 mg or 150 mg compound 52 administered perorally daily as a single dose • 50 mg or 150 mg per compound 52 administered daily as a single dose over 42 days (6 weeks)
# study subjects [3] = test: Nocturia: how often the study subjects got up during the night in order to urinate; assay type: in vivo, human; settings: for Nocturia (n-times, mean): 15 + 15: 15 mg at week 0 and week 2
# From the text: (§1) The results shown are percentage variations from baseline at the beginning of the study (week 0).
# The results shown are mean values, how often the study subjects had to get up.
# study subjects [4] = test: Frequency of emptying: how often the study subjects had to urinate a second time within a 2 hour test period; assay type: in vivo, human; settings: for Frequency of emptying (n-times, mean): 15 + 15: 15 mg at week 0 and week 2
# From the text: as §1
# The results shown are mean values, how often the study subjects had to urinate a second time.
# study subjects [5] = test: IPSS irritative subscore (sum of nocturia, frequency of emptying and urgency to urinate); assay type: in vivo, human; settings: for IPSS irritative subscore (nocturia, frequency of emptying, urgency to urinate): percentage variation from baseline
# From the text: as §1
# [6] = tested on: testosterone blood levels; test: Median testosterone blood levels / chemical (hormonal) castration; settings: blood level
# Method: Preferably, chemical (hormonal) castration is a testosterone castration and refers to a testosterone blood level of equal or below 1.2 ng/mL, preferably 0.5 ng/mL.
# Study subjects were treated with Cetrorelix pamoate with the following doses according to the following administration schemes: • 60 mg Cetrorelix pamaote administered at week 0 and 30 mg Cetrorelix pamaote administered at week 2 (treatment period) followed by up to 5 months of no treatment (treatment-free period) • 60 mg Cetrorelix pamaote administered at week 0 and 60 mg Cetrorelix pamaote administered at week 2 (treatment period) followed by up to 5 months of no treatment (treatment-free period)
# Study subjects were treated with Cetrorelix acetate with the following doses according to the following administration schemes: • 5 mg Cetrorelix acetate administered at week 0, 1, 2 and 3 (total monthly dose of 20 mg) (treatment period) followed by up to 4 months of no treatment (treatment-free period) • 10 mg Cetrorelix acetate administered at week 0 and 10 mg Cetrorelix acetate administered at week 2 (treatment period) followed by up to 4 months of no treatment (treatment-free period) • 10 mg Cetrorelix acetate administered at week 0, 1, 2 and 3 (total monthly dose of 40 mg) (treatment period) followed by up to 4 months of no treatment (treatment-free period)
# Study subjects were treated with Ozarelix with the following doses according to the following administration schemes: • 15 mg Ozarelix administered at week 0 and 15 mg Ozarelix administered at week 2 (treatment period) followed by up to 4 months of no treatment (treatment-free period)
# study subjects [7] = test: Urgency to urinate: how often the study subjects had difficulties to delay the urination; assay type: in vivo, human; settings: for Urgency to urinate (n-times, mean): 15 + 15: 15 mg at week 0 and week 2
# From the text: The results shown are mean values, how often the study subjects had difficulties.
# [8] = 60+30 mg and 60+60 mg schemes, largest difference over weeks 4-24
# [9] = 60 + 30: 60 mg week 0, 30 mg week 2, Week 0
# [10] = 60 + 30: 60 mg week 0, 30 mg week 2, Week 4
# [11] = 60 + 30: 60 mg week 0, 30 mg week 2, Week 8
# [12] = 60 + 30: 60 mg week 0, 30 mg week 2, Week 12
# [13] = 60 + 30: 60 mg week 0, 30 mg week 2, Week 16
# [14] = 60 + 30: 60 mg week 0, 30 mg week 2, Week 20
# [15] = 60 + 30: 60 mg week 0, 30 mg week 2, Week 24
# [16] = 60 + 60: 60 mg week 0, 60 mg week 2, Week 0
# [17] = 60 + 60: 60 mg week 0, 60 mg week 2, Week 4
# [18] = 60 + 60: 60 mg week 0, 60 mg week 2, Week 8
# [19] = 60 + 60: 60 mg week 0, 60 mg week 2, Week 12
# [20] = 60 + 60: 60 mg week 0, 60 mg week 2, Week 16
# [21] = 60 + 60: 60 mg week 0, 60 mg week 2, Week 20
# [22] = 60 + 60: 60 mg week 0, 60 mg week 2, Week 24
# [23] = 15+15 mg scheme, largest difference, n-times mean
compound,measurement,setting,value
"CCC(C)[C@H](NC(=O)Cc1ccccc1F)C(=O)N[C@]1(C(=O)N[C@H](C(=O)NCN2CCOCC2)C(C)CC)CCc2[nH]c3c(C(F)(F)F)cccc3c2C1 (stereo partly drawn) [Compound 36, (R)-3-{(S)-2-[2-(2-Fluoro-phenyl)-acetylamino]-3-methyl-pentanoylamino}-8-trifluoromethyl-2,3,4,9-tetrahydro-1H-carbazole-3-carboxylic acid {(S)-2-methyl-1-[(morpholin-4-ylmethyl)-carbamoyl]-butyl}-amide]","nocturia frequency, urgency to urinate and/or frequency of emptying compared to placebo",study subjects [1],decrease
same,chemical (hormonal) castration,study subjects [2],successfully prevented
"CCC(C)[C@H](NC(=O)Cc1ccccc1F)C(=O)N[C@]1(C(=O)N[C@H](C(=S)NCN2CCOCC2)C(C)CC)CCc2[nH]c3c(C(F)(F)F)cccc3c2C1 (stereo partly drawn) [Compound 37, (R)-3-{(S)-2-[2-(2-Fluoro-phenyl)-acetylamino]-3-methyl-pentanoylamino}-8-trifluoromethyl-2,3,4,9-tetrahydro-1H-carbazole-3-carboxylic acid {(S)-2-methyl-1-[(morpholin-4-ylmethyl)-thiocarbamoyl]-butyl}-amide]","nocturia frequency, urgency to urinate and/or frequency of emptying compared to placebo",study subjects [1],decrease
same,chemical (hormonal) castration,study subjects [2],successfully prevented
Cetrorelix pamoate,further decrease in nocturia frequency compared to placebo,study subjects [3]; [8],up to 11%
same,Nocturia (percentage variation from baseline),study subjects [3]; [9],0%
same,Nocturia (percentage variation from baseline),study subjects [3]; [10],−14%
same,Nocturia (percentage variation from baseline),study subjects [3]; [11],−26%
same,Nocturia (percentage variation from baseline),study subjects [3]; [12],−27%
same,Nocturia (percentage variation from baseline),study subjects [3]; [13],−27%
same,Nocturia (percentage variation from baseline),study subjects [3]; [14],−33%
same,Nocturia (percentage variation from baseline),study subjects [3]; [15],−26%
same,Nocturia (percentage variation from baseline),study subjects [3]; [16],0%
same,Nocturia (percentage variation from baseline),study subjects [3]; [17],−17%
same,Nocturia (percentage variation from baseline),study subjects [3]; [18],−26%
same,Nocturia (percentage variation from baseline),study subjects [3]; [19],−30%
same,Nocturia (percentage variation from baseline),study subjects [3]; [20],−25%
same,Nocturia (percentage variation from baseline),study subjects [3]; [21],−27%
same,Nocturia (percentage variation from baseline),study subjects [3]; [22],−29%
same,further decrease in frequency (of emptying) compared to placebo,study subjects [4]; [8],up to 29%
same,Frequency of emptying (percentage variation from baseline),study subjects [4]; [9],0%
same,Frequency of emptying (percentage variation from baseline),study subjects [4]; [10],−9%
same,Frequency of emptying (percentage variation from baseline),study subjects [4]; [11],−19%
same,Frequency of emptying (percentage variation from baseline),study subjects [4]; [12],−20%
same,Frequency of emptying (percentage variation from baseline),study subjects [4]; [13],−26%
same,Frequency of emptying (percentage variation from baseline),study subjects [4]; [14],−27%
same,Frequency of emptying (percentage variation from baseline),study subjects [4]; [15],−31%
same,Frequency of emptying (percentage variation from baseline),study subjects [4]; [16],0%
same,Frequency of emptying (percentage variation from baseline),study subjects [4]; [17],−16%
same,Frequency of emptying (percentage variation from baseline),study subjects [4]; [18],−25%
same,Frequency of emptying (percentage variation from baseline),study subjects [4]; [19],−24%
same,Frequency of emptying (percentage variation from baseline),study subjects [4]; [20],−29%
same,Frequency of emptying (percentage variation from baseline),study subjects [4]; [21],−25%
same,Frequency of emptying (percentage variation from baseline),study subjects [4]; [22],−34%
same,further decrease in IPSS irritative subscore compared to placebo,study subjects [5]; [8],up to 30%
same,"IPSS irritative subscore (nocturia, frequency of emptying, urgency to urinate)",study subjects [5]; [9],0%
same,"IPSS irritative subscore (nocturia, frequency of emptying, urgency to urinate)",study subjects [5]; [10],−14.8%
same,"IPSS irritative subscore (nocturia, frequency of emptying, urgency to urinate)",study subjects [5]; [11],−33.3%
same,"IPSS irritative subscore (nocturia, frequency of emptying, urgency to urinate)",study subjects [5]; [12],−29.3%
same,"IPSS irritative subscore (nocturia, frequency of emptying, urgency to urinate)",study subjects [5]; [13],−33.3%
same,"IPSS irritative subscore (nocturia, frequency of emptying, urgency to urinate)",study subjects [5]; [14],−33.3%
same,"IPSS irritative subscore (nocturia, frequency of emptying, urgency to urinate)",study subjects [5]; [15],−38%
same,"IPSS irritative subscore (nocturia, frequency of emptying, urgency to urinate)",study subjects [5]; [16],0%
same,"IPSS irritative subscore (nocturia, frequency of emptying, urgency to urinate)",study subjects [5]; [17],−16.7%
same,"IPSS irritative subscore (nocturia, frequency of emptying, urgency to urinate)",study subjects [5]; [18],−25%
same,"IPSS irritative subscore (nocturia, frequency of emptying, urgency to urinate)",study subjects [5]; [19],−25%
same,"IPSS irritative subscore (nocturia, frequency of emptying, urgency to urinate)",study subjects [5]; [20],−25%
same,"IPSS irritative subscore (nocturia, frequency of emptying, urgency to urinate)",study subjects [5]; [21],−27.6%
same,"IPSS irritative subscore (nocturia, frequency of emptying, urgency to urinate)",study subjects [5]; [22],−40%
same,Testosterone [ng/mL] (median),[6]; [9],3.96 ng/mL
same,Testosterone [ng/mL] (median),[6]; [10],2.59 ng/mL
same,Testosterone [ng/mL] (median),[6]; [11],4.01 ng/mL
same,Testosterone [ng/mL] (median),[6]; [12],4.10 ng/mL
same,Testosterone [ng/mL] (median),[6]; [13],3.96 ng/mL
same,Testosterone [ng/mL] (median),[6]; [14],4.12 ng/mL
same,Testosterone [ng/mL] (median),[6]; [15],4.30 ng/mL
same,Testosterone [ng/mL] (median),[6]; [16],3.71 ng/mL
same,Testosterone [ng/mL] (median),[6]; [17],2.19 ng/mL
same,Testosterone [ng/mL] (median),[6]; [18],3.70 ng/mL
same,Testosterone [ng/mL] (median),[6]; [19],3.73 ng/mL
Ozarelix,decrease in nocturia frequency compared to placebo,study subjects [3]; [23],up to 0.76
same,"Nocturia (n-times, mean)",study subjects [3]; Week 0,2.73 n-times
same,"Nocturia (n-times, mean)",study subjects [3]; Week 4,1.83 n-times
same,"Nocturia (n-times, mean)",study subjects [3]; Week 8,1.43 n-times
same,"Nocturia (n-times, mean)",study subjects [3]; Week 12,1.54 n-times
same,"Nocturia (n-times, mean)",study subjects [3]; Week 16,1.54 n-times
same,"Nocturia (n-times, mean)",study subjects [3]; Week 20,1.50 n-times
same,"Nocturia (n-times, mean)",study subjects [3]; Week 24,1.54 n-times
same,decrease in frequency of emptying compared to placebo,study subjects [4]; [23],up to 0.30
same,"Frequency of emptying (n-times, mean)",study subjects [4]; Week 4,2.48 n-times
same,"Frequency of emptying (n-times, mean)",study subjects [4]; Week 8,2.11 n-times
same,"Frequency of emptying (n-times, mean)",study subjects [4]; Week 12,1.82 n-times
same,"Frequency of emptying (n-times, mean)",study subjects [4]; Week 16,1.75 n-times
same,"Frequency of emptying (n-times, mean)",study subjects [4]; Week 20,1.71 n-times
same,"Frequency of emptying (n-times, mean)",study subjects [4]; Week 24,1.75 n-times
same,decrease in urgency to urinate compared to placebo,study subjects [7]; [23],up to 0.74
same,"Urgency to urinate (n-times, mean)",study subjects [7]; Week 0,2.80 n-times
same,"Urgency to urinate (n-times, mean)",study subjects [7]; Week 4,2.17 n-times
same,"Urgency to urinate (n-times, mean)",study subjects [7]; Week 8,1.89 n-times
same,"Urgency to urinate (n-times, mean)",study subjects [7]; Week 12,1.75 n-times
same,"Urgency to urinate (n-times, mean)",study subjects [7]; Week 16,1.39 n-times
same,"Urgency to urinate (n-times, mean)",study subjects [7]; Week 20,1.71 n-times
same,"Urgency to urinate (n-times, mean)",study subjects [7]; Week 24,1.89 n-times
same,Testosterone [ng/mL] (median),"[6]; 15 + 15: 15 mg at week 0 and week 2, Week 0",3.57 ng/mL
same,Testosterone [ng/mL] (median),"[6]; 15 + 15: 15 mg at week 0 and week 2, Week 4",2.97 ng/mL
same,Testosterone [ng/mL] (median),"[6]; 15 + 15: 15 mg at week 0 and week 2, Week 8",4.19 ng/mL
same,Testosterone [ng/mL] (median),"[6]; 15 + 15: 15 mg at week 0 and week 2, Week 12",4.11 ng/mL
same,Testosterone [ng/mL] (median),"[6]; 15 + 15: 15 mg at week 0 and week 2, Week 16",3.82 ng/mL
same,Testosterone [ng/mL] (median),"[6]; 15 + 15: 15 mg at week 0 and week 2, Week 20",3.92 ng/mL
same,Testosterone [ng/mL] (median),"[6]; 15 + 15: 15 mg at week 0 and week 2, Week 24",3.86 ng/mL
